Assay results: PMC4307180, “Overcoming myelosuppression due to synthetic lethal toxicity for FLT3-targeted acute myeloid leukemia therapy” (eLife, 2014)
“Also recorded” adds a separate entry of the source. Where two headings read alike, the source gives them in different places.

Assays:
AML patients [1] = tested on: AML patients; set-up: method as in Cortes et al., 2013; conditions: monotherapy, Phase II trial; ref Cortes et al., 2013; cited from earlier work
KIT phosphorylation = tested on: KIT phosphorylation; set-up: method as in Griswold et al., 2004; conditions: ref Griswold et al., 2004; cited from earlier work
Ba/F3 FLT3 ITD + D835F = experiment: Ba/F3 cell viability, FLT3 ITD + D835F; type: cell-based; conditions: Mus musculus, Ba/F3, 48 hr, ± SEM
Experimental: (§1) Stable Ba/F3 lines were generated by retroviral spinfection with the appropriate mutated plasmid as previously described ([Smith et al., 2012]).
(§2) Exponentially growing cells (5 × 10^3 cells per well) were plated in each well of a 96-well plate with 0.1 ml of RPMI 1640 + 10% (vol/vol) FCS containing the appropriate concentration of drug in triplicate, and cell viability was assessed after 48 hr as previously described ([Smith et al., 2012]). […] Log10-scale transformation of ratios, followed by conditional formatting using xcel spreadsheet software yielded the colored diagrams shown.
(§3) Mutations isolated in the screen were engineered into pMSCVpuroFLT3–ITD by QuikChange mutagenesis (Stratagene, La Jolla, CA) as previously described ([Smith et al., 2012]).

[2] = tested on: primary patient FLT3 D835 AML circulating blasts; experiment: Colony-forming assay, primary patient FLT3-D835 AML blasts; type: cell-based, human; conditions: at 1,000 nM; ca. 120 for DMSO plates
From the text: (§4) Primary AML blood samples and/or marrow aspirates were obtained on an IRB-approved protocol at the University of California, San Francisco. Informed consent was obtained in accordance with the Declaration of Helsinki. Mononuclear cells were purified by density centrifugation (Ficoll–Paque Plus, GE Healthsciences) before cryopreservation in 10% (vol/vol) DMSO or FCS (primary ITD and D835-mutant assays, Figure 3A–C) or immediate use in assays (Normal BM and SPB, Figure 3D–F). Normal BM and stimulated peripheral blood (SPB) samples were collected from donors at the UCSF oncology/hematology division. Cells were then suspended in MethoCult methylcellulose (Stem Cell Technologies, product no. H4435 Enriched, Canada) in 15-ml Falcon tubes, vigorously vortexed, bubbles settled over 10 min. Triplicates then plated via blunt-nosed syringe (1.1 ml each) into 3-cm dishes, avoiding bubble generation, and each dish placed in a larger 10-cm dish with water trough in an incubator (37°C, 5% CO2) for 13–14 days. Colonies were counted individually using traditional microscopy. CFU and BFU types reported separately (CFU-GEMM colonies counted as one of each).

p-KIT in HMC1.1 cells = target: T1, p-KIT in HMC1.1 cells (Homo sapiens, UniProt P10721, V560G); experiment: Immunoblot of p-KIT in HMC1.1; type: cell-based; conditions: immunoblot, 90-min incubation
T1 construct: endogenous in cells; host or cells: HMC1.1
T1 sequence (P10721 26-976 V560G): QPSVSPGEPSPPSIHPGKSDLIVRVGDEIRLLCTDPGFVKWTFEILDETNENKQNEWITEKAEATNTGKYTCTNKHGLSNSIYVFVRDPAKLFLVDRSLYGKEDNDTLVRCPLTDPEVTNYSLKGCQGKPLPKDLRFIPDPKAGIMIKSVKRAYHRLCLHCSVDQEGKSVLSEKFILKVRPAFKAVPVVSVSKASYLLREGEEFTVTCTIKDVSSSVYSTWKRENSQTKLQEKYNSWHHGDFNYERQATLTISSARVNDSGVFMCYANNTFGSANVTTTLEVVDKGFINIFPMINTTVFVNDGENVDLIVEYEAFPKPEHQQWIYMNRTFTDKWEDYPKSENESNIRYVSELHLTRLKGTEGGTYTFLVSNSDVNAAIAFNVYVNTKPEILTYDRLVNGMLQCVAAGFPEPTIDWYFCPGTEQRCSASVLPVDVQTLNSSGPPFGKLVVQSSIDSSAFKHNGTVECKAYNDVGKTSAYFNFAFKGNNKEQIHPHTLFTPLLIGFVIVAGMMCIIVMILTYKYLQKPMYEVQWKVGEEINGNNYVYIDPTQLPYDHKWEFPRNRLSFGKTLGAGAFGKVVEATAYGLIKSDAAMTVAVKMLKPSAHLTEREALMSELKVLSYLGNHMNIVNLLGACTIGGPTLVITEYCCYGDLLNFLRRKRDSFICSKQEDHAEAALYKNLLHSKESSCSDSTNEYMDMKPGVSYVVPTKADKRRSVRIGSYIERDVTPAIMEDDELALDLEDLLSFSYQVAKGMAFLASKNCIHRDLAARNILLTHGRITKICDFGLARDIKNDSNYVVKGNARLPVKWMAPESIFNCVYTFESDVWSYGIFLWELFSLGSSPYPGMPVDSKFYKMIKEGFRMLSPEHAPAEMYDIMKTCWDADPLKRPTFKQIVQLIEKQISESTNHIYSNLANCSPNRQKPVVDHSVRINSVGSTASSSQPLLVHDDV

Ba/F3 Parental + IL3 = experiment: Ba/F3 cell viability, Parental + IL3; type: cell-based; conditions: Mus musculus, BaF3; Ba/F3, 48 hr, ± SEM
Experimental: as §1, §2

[3] = tested on: MV4;11 cells (FLT3-ITD homozygous); experiment: Cell proliferation/viability assay, MV4;11; type: cell-based; conditions: Homo sapiens, 48 hr, ± SEM
Experimental: as §2

[4] = tested on: mpo+ myeloid cells in zebrafish embryos; experiment: Zebrafish normal myelopoiesis, mpo WISH in posterior blood island; type: in vivo, Danio rerio (zebrafish); conditions: 10 μM, 6 to 30 hpf, read at 30 hpf, vs DMSO
Experimental: (§5) Figure 4. […] (N–P) Three categories of mpo transcription (N, normal; O, intermediate; P, severe) were defined based on the WISH results (three experiments). […] Scale bar equals 500 μm. Blue arrows indicate the pericardial edema, green arrows indicate tail shortening and curving, and red arrows indicate the FLT3-ITD AML mpo+ myeloid cells expansion. […] For all experiments: Zebrafish embryos were collected and kept in standard E3 medium at 28°C. Different concentrations of either drug were added to the E3 medium from 6 hr post fertilization (hpf) to 3 days post fertilization (dpf). Embryos treated with DMSO or 10 μM drug from 6 to 30 hpf were collected for mpo whole mount in situ hybridization (WISH) analysis. […] plasmid DNA containing FLT3/ITD sequence was microinjected into one-cell stage embryos, and the uninjected embryos were used as control. FLT3/ITD-injected embryos were treated with DMSO or 10 μM drug from 6 to 30 hpf.
(§6) Wild-type (WT) zebrafish were maintained under standard conditions, and embryos were staged as described ([He et al., 2014]). The study was approved by the Committee of the Use of Live Animals for Teaching and Research in The University of Hong Kong.

Ba/F3 FLT3 ITD + A848P = experiment: Ba/F3 cell viability, FLT3 ITD + A848P; type: cell-based; conditions: Mus musculus, Ba/F3, 48 hr, ± SEM
Experimental: as §1, §2, §3

HMC1.1 cells (KIT V560G) = experiment: Cell proliferation/viability assay, HMC1.1; type: cell-based, human; conditions: Homo sapiens; Kit V560 G, 48 hr, ± SEM
Experimental: as §2

HMC1.1 cells = experiment: Caspase-3 activation (apoptosis), HMC1.1; type: cell-based, human; conditions: 48 hr, up to 2,500 nM
Experimental: Cells were fixed with 4% (vol/vol) paraformaldehyde (Electron Microscopy Sciences) and permeabilized with 100% (vol/vol) methanol (Electron Microscopy Sciences, Hatfield, PA) followed by staining with a FITC-conjugated antiactive caspase-3 antibody (BD Pharmingen, San Jose, CA). Cells were run on a BD LSRFortessa cell analyzer, and data were analyzed using FlowJo (Tree Star Inc., Ashland, OR). Percentage of live cells was determined by negative staining for activated caspase-3 (see Figure 2B,C).

[5] = tested on: primary patient FLT3-ITD+ AML circulating blasts; experiment: Colony-forming assay, primary patient FLT3-ITD+ AML blasts; type: cell-based, human; conditions: at 1,000 nM; ca. 1,200 CFUs in DMSO plates
From the text: as §4

AML patients [6] = tested on: AML patients; set-up: method as in Strati et al., 2014; conditions: ref Strati et al., 2014, cited from earlier work
[7] = tested on: FLT3/ITD-injected zebrafish embryos; experiment: Zebrafish FLT3/ITD-induced mpo+ myeloid cell expansion; type: in vivo, Danio rerio (zebrafish); conditions: 10 μM, 6 to 30 hpf, read at 30 hpf
Experimental: as §5, §6

zebrafish embryos = experiment: Zebrafish embryonic development / WT morphology; type: in vivo, Danio rerio (zebrafish); conditions: 3 dpf, drug from 6 hpf
Experimental: as §5, §6

[8] = tested on: normal bone marrow (BM) and stimulated peripheral blood (SPB) hematopoietic progenitors; experiment: Colony-forming assay, normal BM and stimulated peripheral blood; type: cell-based, human
From the text: as §4, with “each). Results shown for FLT3 ITD primary blasts (Figure 3B) are a combination of leukemic blast colonies and BFU colonies.” for “each).”

purified FLT3 WT = target: T2, purified FLT3 WT (Homo sapiens, UniProt P36888); experiment: Radiolabeled purified kinase assay (Figure 1B)
T2 sequence (P36888 27-993): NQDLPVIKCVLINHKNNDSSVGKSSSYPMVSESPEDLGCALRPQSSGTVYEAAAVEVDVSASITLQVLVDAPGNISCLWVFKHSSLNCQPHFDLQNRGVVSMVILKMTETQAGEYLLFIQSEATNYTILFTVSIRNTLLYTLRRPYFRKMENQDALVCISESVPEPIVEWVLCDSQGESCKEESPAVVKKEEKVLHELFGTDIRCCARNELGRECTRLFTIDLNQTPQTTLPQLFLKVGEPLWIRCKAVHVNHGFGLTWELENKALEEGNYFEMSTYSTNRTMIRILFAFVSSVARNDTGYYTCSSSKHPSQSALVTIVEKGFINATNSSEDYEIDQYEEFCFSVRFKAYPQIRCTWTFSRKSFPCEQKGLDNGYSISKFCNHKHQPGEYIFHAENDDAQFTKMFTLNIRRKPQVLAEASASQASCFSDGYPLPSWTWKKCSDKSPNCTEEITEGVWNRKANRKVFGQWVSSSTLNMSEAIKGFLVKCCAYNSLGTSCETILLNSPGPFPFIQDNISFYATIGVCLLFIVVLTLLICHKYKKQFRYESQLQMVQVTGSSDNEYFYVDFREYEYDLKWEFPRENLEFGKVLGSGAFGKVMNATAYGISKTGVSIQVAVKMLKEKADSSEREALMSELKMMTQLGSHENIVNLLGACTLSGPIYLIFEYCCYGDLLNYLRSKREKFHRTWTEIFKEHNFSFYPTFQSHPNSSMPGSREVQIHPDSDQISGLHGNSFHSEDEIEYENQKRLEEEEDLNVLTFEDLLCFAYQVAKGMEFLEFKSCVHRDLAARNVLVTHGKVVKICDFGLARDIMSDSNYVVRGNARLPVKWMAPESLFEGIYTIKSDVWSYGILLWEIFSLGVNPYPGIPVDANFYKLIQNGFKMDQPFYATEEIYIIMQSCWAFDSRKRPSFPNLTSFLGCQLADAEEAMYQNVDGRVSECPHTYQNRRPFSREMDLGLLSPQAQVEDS

CSF1R = CSF1R (Homo sapiens, UniProt P07333); set-up: purchased Reaction Biology Corporation (Malvern, PA); method as in Lopez et al., 2013; conditions: at 1 µM, panel of 319 kinases; ref Lopez et al., 2013; cited from earlier work
Chain of CSF1R (P07333 20-972): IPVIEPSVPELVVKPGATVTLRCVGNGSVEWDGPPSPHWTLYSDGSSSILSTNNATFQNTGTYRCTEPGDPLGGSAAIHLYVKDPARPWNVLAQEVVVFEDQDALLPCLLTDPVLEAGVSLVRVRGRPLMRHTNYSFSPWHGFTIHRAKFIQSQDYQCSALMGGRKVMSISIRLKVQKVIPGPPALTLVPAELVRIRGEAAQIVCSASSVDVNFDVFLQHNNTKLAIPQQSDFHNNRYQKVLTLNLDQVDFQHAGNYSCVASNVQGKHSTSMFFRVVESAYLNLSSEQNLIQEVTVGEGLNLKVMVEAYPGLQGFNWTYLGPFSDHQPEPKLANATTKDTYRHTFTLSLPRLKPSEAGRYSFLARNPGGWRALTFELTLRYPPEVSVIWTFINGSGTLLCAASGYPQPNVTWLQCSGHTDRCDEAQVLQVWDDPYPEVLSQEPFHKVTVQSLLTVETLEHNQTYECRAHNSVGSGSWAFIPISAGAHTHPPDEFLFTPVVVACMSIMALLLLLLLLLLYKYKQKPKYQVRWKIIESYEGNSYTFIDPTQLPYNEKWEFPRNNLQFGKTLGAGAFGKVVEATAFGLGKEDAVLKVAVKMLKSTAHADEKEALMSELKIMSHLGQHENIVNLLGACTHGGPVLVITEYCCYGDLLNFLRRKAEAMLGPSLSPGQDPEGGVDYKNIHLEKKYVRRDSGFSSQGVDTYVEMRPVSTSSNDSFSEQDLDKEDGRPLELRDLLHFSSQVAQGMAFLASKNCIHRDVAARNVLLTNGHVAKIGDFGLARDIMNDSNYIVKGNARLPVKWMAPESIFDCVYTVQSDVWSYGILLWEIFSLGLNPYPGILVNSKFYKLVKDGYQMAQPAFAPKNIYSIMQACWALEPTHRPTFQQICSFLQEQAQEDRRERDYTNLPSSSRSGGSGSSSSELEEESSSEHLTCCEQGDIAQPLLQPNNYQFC

PDGFRβ = PDGFRβ (Homo sapiens, UniProt P09619); set-up: purchased Reaction Biology Corporation (Malvern, PA); method as in Lopez et al., 2013; conditions: at 1 µM, panel of 319 kinases; ref Lopez et al., 2013; cited from earlier work
Chain of PDGFRβ (P09619 33-1106): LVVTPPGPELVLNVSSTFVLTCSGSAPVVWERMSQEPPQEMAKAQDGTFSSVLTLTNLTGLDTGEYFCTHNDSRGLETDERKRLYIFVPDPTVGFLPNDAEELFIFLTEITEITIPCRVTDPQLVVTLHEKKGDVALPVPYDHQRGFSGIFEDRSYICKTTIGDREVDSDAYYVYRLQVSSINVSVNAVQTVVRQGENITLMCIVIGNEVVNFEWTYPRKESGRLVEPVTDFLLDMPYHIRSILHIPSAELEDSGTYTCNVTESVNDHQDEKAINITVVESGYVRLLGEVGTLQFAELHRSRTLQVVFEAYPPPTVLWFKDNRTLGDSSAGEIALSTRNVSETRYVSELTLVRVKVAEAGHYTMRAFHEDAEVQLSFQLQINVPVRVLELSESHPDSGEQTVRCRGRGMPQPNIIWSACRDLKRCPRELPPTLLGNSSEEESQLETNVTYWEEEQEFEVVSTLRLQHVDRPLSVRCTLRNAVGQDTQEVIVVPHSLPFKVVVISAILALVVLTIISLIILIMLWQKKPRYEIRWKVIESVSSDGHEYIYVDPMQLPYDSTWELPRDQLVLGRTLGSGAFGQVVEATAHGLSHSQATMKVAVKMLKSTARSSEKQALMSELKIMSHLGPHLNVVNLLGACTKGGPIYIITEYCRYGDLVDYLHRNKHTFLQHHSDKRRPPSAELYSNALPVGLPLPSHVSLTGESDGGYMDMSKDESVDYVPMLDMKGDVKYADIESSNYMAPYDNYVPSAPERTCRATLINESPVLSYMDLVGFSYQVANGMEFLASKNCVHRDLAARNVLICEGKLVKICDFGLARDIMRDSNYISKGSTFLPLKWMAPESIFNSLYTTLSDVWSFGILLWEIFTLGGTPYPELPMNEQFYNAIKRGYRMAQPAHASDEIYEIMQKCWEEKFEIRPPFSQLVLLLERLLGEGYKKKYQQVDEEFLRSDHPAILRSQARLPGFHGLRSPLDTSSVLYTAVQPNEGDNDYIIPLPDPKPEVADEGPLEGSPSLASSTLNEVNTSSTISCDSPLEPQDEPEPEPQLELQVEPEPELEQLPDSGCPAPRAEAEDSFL

FLT3 = target: T3, FLT3 (Homo sapiens, UniProt P36888); set-up: purchased Reaction Biology Corporation (Malvern, PA); method as in Lopez et al., 2013; conditions: at 1 µM, panel of 319 kinases; ref Lopez et al., 2013; cited from earlier work
T3 sequence (P36888 27-993): T2 sequence (P36888 27-993)

PDGFRα = PDGFRα (Homo sapiens, UniProt P16234); set-up: purchased Reaction Biology Corporation (Malvern, PA); method as in Lopez et al., 2013; conditions: at 1 µM, panel of 319 kinases; ref Lopez et al., 2013; cited from earlier work
Chain of PDGFRα (P16234 24-1089): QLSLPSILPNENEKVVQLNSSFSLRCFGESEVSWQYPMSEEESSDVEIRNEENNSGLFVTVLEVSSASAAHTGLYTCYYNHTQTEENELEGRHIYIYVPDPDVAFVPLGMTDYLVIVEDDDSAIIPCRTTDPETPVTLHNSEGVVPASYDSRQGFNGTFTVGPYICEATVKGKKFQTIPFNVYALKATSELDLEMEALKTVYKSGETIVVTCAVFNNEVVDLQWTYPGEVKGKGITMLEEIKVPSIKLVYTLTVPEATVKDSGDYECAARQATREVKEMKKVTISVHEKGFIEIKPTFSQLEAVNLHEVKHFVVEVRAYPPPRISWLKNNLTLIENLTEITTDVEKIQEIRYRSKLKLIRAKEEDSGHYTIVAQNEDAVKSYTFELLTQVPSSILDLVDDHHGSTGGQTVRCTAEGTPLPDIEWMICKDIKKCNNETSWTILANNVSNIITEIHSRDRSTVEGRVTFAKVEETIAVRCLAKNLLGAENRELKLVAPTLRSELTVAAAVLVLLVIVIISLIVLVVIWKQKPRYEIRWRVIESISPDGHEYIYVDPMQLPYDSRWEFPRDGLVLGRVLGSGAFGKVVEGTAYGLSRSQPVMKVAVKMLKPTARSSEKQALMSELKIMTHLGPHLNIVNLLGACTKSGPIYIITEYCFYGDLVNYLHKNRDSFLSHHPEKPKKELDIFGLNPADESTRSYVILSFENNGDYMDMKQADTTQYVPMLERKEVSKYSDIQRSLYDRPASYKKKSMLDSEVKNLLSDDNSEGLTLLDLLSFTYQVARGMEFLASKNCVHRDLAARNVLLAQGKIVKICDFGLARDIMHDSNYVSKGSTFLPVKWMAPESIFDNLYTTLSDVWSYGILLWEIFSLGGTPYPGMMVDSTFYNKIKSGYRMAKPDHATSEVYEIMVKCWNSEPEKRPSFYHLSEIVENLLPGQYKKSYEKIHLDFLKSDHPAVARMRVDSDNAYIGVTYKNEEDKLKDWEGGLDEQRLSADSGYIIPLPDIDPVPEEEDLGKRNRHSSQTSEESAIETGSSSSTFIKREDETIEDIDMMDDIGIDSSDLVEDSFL

KIT = KIT (Homo sapiens, UniProt P10721); set-up: purchased Reaction Biology Corporation (Malvern, PA); method as in Lopez et al., 2013; conditions: at 1 µM, panel of 319 kinases; ref Lopez et al., 2013; cited from earlier work
Chain of KIT (P10721 26-976): as the sequence (P10721 26-976 V560G) above, with G535V counted along it

## CC(C)(C)c1cc(NC(=O)Nc2ccc(-c3cn4c(n3)sc3cc(OCCN5CCOCC5)ccc34)cc2)no1.Cl.Cl [AC220, N-(5-tert-Butyl-isoxazol-3-yl)-N'-{4-[7-(2-morpholin-4-yl-ethoxy)imidazo[2,1-b][1,3]benzothiazol-2-yl]phenyl}urea Dihydrochloride]
AML patients [1]
  CR rate: 50%
  CRi rate: 45%

## COc1cc2c(N3CCN(C(=O)Nc4ccc(OC(C)C)cc4)CC3)ncnc2cc1OCCCN1CCCCC1 [MLN518]
KIT phosphorylation
  IC50: 170 nM

## CO[C@@H]1[C@H](N(C)C(=O)c2ccccc2)C[C@H]2O[C@]1(C)n1c3ccccc3c3c4c(c5c6ccccc6n2c5c31)C(=O)NC4 [PKC412, N-benzoylstaurosporine, reference compound]
Ba/F3 FLT3 ITD + D835F
  IC50: 9 ± 3 nM
[2]
  raw colony numbers, FLT3 D835Y blasts: ca. 25
p-KIT in HMC1.1 cells
  p-KIT and downstream signaling inhibition in HMC1.1 cells: inhibited p-KIT and downstream signaling to a greater degree
Ba/F3 Parental + IL3
  IC50: 243 ± 73 nM
[3]
  IC50: 16 ± 5 nM
[4]
  effect on mpo+ myeloid cells development in the PBI: statistically significant granulogenesis/myelosuppression; also recorded: statistically significant suppression of myelopoiesis
Ba/F3 FLT3 ITD + A848P
  IC50: 9 ± 6 nM
HMC1.1 cells (KIT V560G)
  IC50: 354 ± 60 nM
HMC1.1 cells
  apoptosis/toxicity (caspase-3) in KIT-addicted HMC1.1 cells: potent toxicity
[5]
  raw colony numbers, FLT3-ITD+ blasts: ca. 20
AML patients [6]; combined with cytotoxic agents
  CR rate: 25%
  incomplete recovery of peripheral blood counts (CRi) rate: 20%
  patients developing grade 3/4 myelosuppression: over 90%
AML patients [6]; single agent Phase II trial
  complete remission (CR), single agent: failed to achieve a single complete remission
[7]
  effect on FLT3/ITD-induced mpo+ myeloid cells expansion: efficaciousness similar to Star 27
Zebrafish embryos
  effect on zebrafish embryonic development / morphology: substantial morphological defects to the heart at 1 μM
[8]; at 1,000 nM
  raw colony numbers, normal BM: zero in most PKC412-treated replicates
[8]; normal BM and SPB donors, up to 1,000 nM
  effect on normal hematopoietic colony formation (CFU and BFU): eliminates most normal hematopoietic colony forming potential at 1 mM; also recorded: dose-dependent inhibition of colony formation

## CC(C)C[C@@H]1NC(=O)c2c1c1c3ccccc3n(CCCCN)c1c1[nH]c3ccccc3c21 [Star 12]
Purified FLT3 WT
  IC50: 524 ± 94 nM
CSF1R
  inhibition of CSF1R: < 10%
PDGFRβ
  inhibition of PDGFRβ: < 10%
FLT3
  inhibition of FLT3: 57%
PDGFRα
  inhibition of PDGFRα: < 10%
KIT
  inhibition of KIT: < 10%
